Results as given in ChEMBL document CHEMBL1129696, “5- and 7-oxa trinems: their synthesis and biological evaluation” (1996).
≈ marks a conversion by molar mass, not a printed value.

Experiments:
Format in all cases: functional
[1] = test system: Bacteroides fragilis; assay: In vitro antibacterial activity against Bacteroides fragilis 2017
[2] = test system: Clostridium perfringens; assay: In vitro antibacterial activity against Clostridium perfringens 615
[3] = test system: Enterococcus faecalis; assay: In vitro antibacterial activity against Enterococcus faecalis 850
[4] = test system: Escherichia coli; assay: In vitro antibacterial activity agains Escherichia coli 1852
[5] = test system: Streptococcus pneumoniae; assay: In vitro antibacterial activity against Streptococcus pneumoniae 3512
[6] = test system: Staphylococcus aureus; assay: In vitro antibacterial activity against Staphylococcus aureus 853
[7] = test system: Escherichia coli; assay: In vitro antibacterial activity against Escherichia coli 1850
[8] = test system: Escherichia coli; assay: In vitro antibacterial activity against Escherichia coli 1850.

SMILES | MIC [1] | MIC [2] | MIC [3] | MIC [4] | MIC [5] | MIC [6] | MIC [7] | MIC [8]
C[C@@H](O)[C@H]1C(=O)N2C(C(=O)[O-])=C3COCC[C@H]3[C@H]12.[K+] | 0.1 µg/mL | 2 µg/mL | 32 µg/mL | 4 µg/mL | 0.1 µg/mL | 2 µg/mL | 2 µg/mL | –
C[C@@H](O)[C@H]1C(=O)N2C(C(=O)[O-])=C3CCCO[C@@H]3[C@H]12.[K+] | 0.1 µg/mL | 0.06 µg/mL | 1 µg/mL | 1 µg/mL | 0.06 µg/mL | 0.5 µg/mL | 1 µg/mL | –
C[C@@H](O)[C@H]1C(=O)N2C(C(=O)[O-])=C3CCCC[C@@H]3[C@H]12.[K+] | 1 µg/mL | 0.1 µg/mL | 8 µg/mL | 1 µg/mL | 0.06 µg/mL | 1 µg/mL | 1 µg/mL | –
C[C@@H](O)[C@H]1C(=O)N2C(C(=O)[O-])=C3COCC[C@@H]3[C@H]12.[K+] | 0.2 µg/mL | 0.5 µg/mL | 8 µg/mL | 0.5 µg/mL | 0.06 µg/mL | 0.5 µg/mL | 0.5 µg/mL | –
C[C@@H](O)[C@H]1C(=O)N2C(C(=O)[O-])=C3CCCO[C@H]3[C@H]12.[K+] | 0.2 µg/mL | 1 µg/mL | 16 µg/mL | 4 µg/mL | 0.2 µg/mL | 1 µg/mL | 2 µg/mL | –
C[C@@H](O)[C@H]1C(=O)N2C(C(=O)[O-])=C3CCCC[C@H]3[C@H]12.[K+] | 0.5 µg/mL | 1 µg/mL | 16 µg/mL | 2 µg/mL | 0.5 µg/mL | 1 µg/mL | – | 2 µg/mL
CO[C@H]1CCC[C@H]2C1=C(C(=O)O)N1C(=O)[C@H]([C@@H](C)O)[C@@H]21 [SANFETRINEM] | 0.06 µg/mL (≈ 0.213 µM) | 0.03 µg/mL (≈ 0.107 µM) | 1 µg/mL (≈ 3.55 µM) | 0.5 µg/mL (≈ 1.78 µM) | < 0.01 µg/mL | 0.2 µg/mL (≈ 0.711 µM) | 0.5 µg/mL (≈ 1.78 µM) | –
